Measured values reported in patent publication US20250236617A1, “BICYCLIC TETRAHYDROTHIAZEPINE DERIVATIVES” (Hoffmann-La Roche Inc., priority 2022, published 2025).

Legend:
primary human T-cells [1] = assay: IL2 secretion measurements in CD3-stimulated T-cells; format: cell-based; details: CD3 condition; for Emax IL2 (% activation): 24 hours, 20 μM reference compound A1 = 100%; for EC50: Homo sapiens, T-cell, IL2 secretion after 24 hours, read-out: Tcell IL2 CD3 EC50
Outline: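 Expanded primary human T-cells (100 k/well, RPMI + 5% human serum) on plate-bound anti-CD3 (donor-titrated) or PBS counter-screen wells, 5–6 pt dose response from 20 or 10 μM top (dilution factor 3.333), 0.2% DMSO final. IL-2 in 24 h supernatant by ProQuantum immunoassay or ELISA. Normalised to DMSO (0%) and 20 μM reference A1 (100%); EC50 and Emax from sigmoidal fit.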

[2] = molecular target: DGKzeta (hDGKzeta(1-928)-N-His) (Homo sapiens (Human), UniProt Q13574); assay: In vitro DGK inhibition assay, ADP-Glo (in house), DGKzeta; format: biochemical; details: DLG liposomes, 50 μM ATP, 2 nM enzyme, 1 hour reaction
Chain of DGKzeta (hDGKzeta(1-928)-N-His) (Q13574 whole entry): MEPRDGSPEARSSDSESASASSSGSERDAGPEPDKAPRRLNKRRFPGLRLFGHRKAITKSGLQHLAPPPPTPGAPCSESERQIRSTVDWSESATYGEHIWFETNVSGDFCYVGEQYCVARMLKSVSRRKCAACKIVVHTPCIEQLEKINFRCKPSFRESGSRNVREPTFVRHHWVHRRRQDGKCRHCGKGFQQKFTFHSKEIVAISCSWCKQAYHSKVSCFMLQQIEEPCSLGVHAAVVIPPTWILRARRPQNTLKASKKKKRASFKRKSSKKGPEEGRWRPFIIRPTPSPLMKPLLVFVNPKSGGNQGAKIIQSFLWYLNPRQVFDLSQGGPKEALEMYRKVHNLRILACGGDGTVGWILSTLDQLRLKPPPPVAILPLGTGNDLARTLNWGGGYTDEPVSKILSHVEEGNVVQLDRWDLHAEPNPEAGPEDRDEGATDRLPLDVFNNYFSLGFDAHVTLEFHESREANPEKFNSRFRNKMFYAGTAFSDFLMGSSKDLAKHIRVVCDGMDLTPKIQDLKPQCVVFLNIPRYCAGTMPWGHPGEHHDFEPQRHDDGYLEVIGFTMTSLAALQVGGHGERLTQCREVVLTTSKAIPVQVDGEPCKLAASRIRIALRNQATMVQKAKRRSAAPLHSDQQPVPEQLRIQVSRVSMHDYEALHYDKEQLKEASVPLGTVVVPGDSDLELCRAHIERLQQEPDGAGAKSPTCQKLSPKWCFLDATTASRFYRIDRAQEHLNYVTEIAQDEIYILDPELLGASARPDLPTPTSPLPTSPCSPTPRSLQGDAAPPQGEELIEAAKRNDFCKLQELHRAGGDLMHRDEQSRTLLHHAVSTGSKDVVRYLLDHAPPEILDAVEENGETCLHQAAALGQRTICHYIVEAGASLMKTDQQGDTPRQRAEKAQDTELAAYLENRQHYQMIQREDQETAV
Procedure: (§1) DGK α and ζ kinases use ATP to phosphorylate the substrate 1,2-dilauroyl-sn-glycerol (DLG, incorporated in the liposomes). ATP is converted to ADP as a result of this enzymatic reaction.
(§2) After the kinase reaction, an ATP-depletion reagent is added to terminate the kinase reaction and deplete any remaining ATP, leaving only ADP. Second, a detection reagent is added to simultaneously convert ADP to ATP and allow the newly synthesized ATP to be converted to light using a coupled luciferase/luciferin reaction.
(§3) Purification of both enzymes was performed as previously described by Takahashi et al., PeerJ, 2018 (Takahashi, D.; Sakane, F. Expression and purification of human diacylglycerol kinase alpha from baculovirus-infected insect cells for structural studies. PeerJ 2018, 6, No. e5449).
(§4) A concentrated liposome solution was prepared in assay buffer without DTT and BSA: 2 mM of DLG in 21 mM of total liposome (2 mM DLG/8 mM PS/11 mM PC). The reaction mixtures contain the assay buffer with a final DLG concentration of 125 uM ATP concentrations of 25 μM (for DGKA assay) or 50 μM (for DGKZ assay). The reactions were started by addition of DGK α and ζ kinases at 4 nM and 2 nM final concentrations, respectively. After 1 hour reaction, the amount of ADP formed was detected with the ADP-Glo kinase assay (Promega) according to the manufacturer instructions. Compounds were added in 11-points dose response, starting at […], 1:3 dilutions, with a final DMSO concentration of 2%. The multidrop combi was used as a liquid handler and luminescence was read with 0.5 s by the envision reader (PE).

primary human T-cells [3] = assay: T-cell proliferation assay (CellTiter-Glo); format: cell-based; details: CD3 condition; for Emax proliferation (% activation): 5 days, 20 μM reference compound A1 = 100%; for EC50: Homo sapiens, T-cell, 120 h, proliferation after 5 days, CellTiter-Glo, read-out: Tcell Proliferation CD3 EC50
[4] = molecular target: DGKalpha (hDGKalpha(1-735)-N-His) (Homo sapiens (Human), UniProt P23743); assay: In vitro DGK inhibition assay, ADP-Glo (in house), DGKalpha; format: biochemical; details: DLG liposomes, 25 μM ATP, 4 nM enzyme, 1 hour reaction
Chain of DGKalpha (hDGKalpha(1-735)-N-His) (P23743 whole entry): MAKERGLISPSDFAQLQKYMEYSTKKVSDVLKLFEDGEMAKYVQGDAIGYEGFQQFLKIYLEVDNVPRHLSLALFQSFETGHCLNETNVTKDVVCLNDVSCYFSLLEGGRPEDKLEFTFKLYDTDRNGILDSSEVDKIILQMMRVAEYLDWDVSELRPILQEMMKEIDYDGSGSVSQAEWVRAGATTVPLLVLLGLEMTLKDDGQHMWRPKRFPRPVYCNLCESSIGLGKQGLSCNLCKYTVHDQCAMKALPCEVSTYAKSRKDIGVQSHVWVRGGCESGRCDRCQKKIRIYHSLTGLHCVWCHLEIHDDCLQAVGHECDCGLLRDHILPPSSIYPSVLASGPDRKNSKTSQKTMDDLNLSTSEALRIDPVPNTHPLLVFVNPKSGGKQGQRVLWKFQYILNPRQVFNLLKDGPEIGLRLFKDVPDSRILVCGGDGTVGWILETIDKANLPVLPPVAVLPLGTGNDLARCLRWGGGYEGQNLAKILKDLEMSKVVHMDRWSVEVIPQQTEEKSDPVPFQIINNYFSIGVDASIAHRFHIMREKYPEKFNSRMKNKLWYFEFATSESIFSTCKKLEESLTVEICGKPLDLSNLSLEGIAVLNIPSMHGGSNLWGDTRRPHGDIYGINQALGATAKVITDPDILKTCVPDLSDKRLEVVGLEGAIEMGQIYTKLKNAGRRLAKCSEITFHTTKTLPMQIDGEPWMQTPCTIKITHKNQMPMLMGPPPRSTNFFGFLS
Procedure: as §1, §2, §3, §4

SMILES	Emax IL2 (% activation) (primary human T-cells [1])	EC50 (primary human T-cells [1]) [µM]	IC50 [2] [µM]	Emax proliferation (% activation) (primary human T-cells [3])	EC50 (primary human T-cells [3]) [µM]	IC50 [4] [µM]
N[C@H]1CS(=O)(=O)c2cc(F)c(-c3cnnc(OCC(F)(F)F)c3)cc2N(Cc2ccc(-c3noc(C(F)(F)F)n3)cc2)C1=O [Example 33, (3R)-3-amino-8-fluoro-1,1-dioxo-7-[6-(2,2,2-trifluoroethoxy)pyridazin-4-yl]-5-[[4-[5-(trifluoromethyl)-1,2,4-oxadiazol-3-yl]phenyl]methyl]-2,3-dihydro-1λ6,5-benzothiazepin-4-one]	154	2.23	20	103	0.298	22.2
N[C@H]1CS(=O)(=O)c2cc(F)c(-c3cncc(N4CCOCC4)c3)cc2N(Cc2ccc(-c3noc(C(F)(F)F)n3)cc2)C1=O [Example 21, (3R)-3-amino-8-fluoro-1,1-diketo-7-(5-morpholino-3-pyridyl)-5-[4-[5-(trifluoromethyl)-1,2,4-oxadiazol-3-yl]benzyl]-2,3-dihydro-1λ6,5-benzothiazepin-4-one]	131	6.78	8.77	140	3.76	31
COc1ccc(-c2ccc(CN3C(=O)[C@@H](N)CS(=O)(=O)c4cc(F)c(-c5ccc(C(C)C)nc5)cc43)cc2)cc1 [Example 29, (3R)-3-amino-8-fluoro-7-(6-isopropyl-3-pyridyl)-5-[[4-(4-methoxyphenyl)phenyl]methyl]-1,1-dioxo-2,3-dihydro-1λ6,5-benzothiazepin-4-one]	110	0.453	13.6	38	0.071	18.8
CC(C)(C)c1cc(-c2cc3c(cc2F)S(=O)(=O)C[C@H](N)C(=O)N3Cc2ccc(-c3ccc(C(F)(F)F)cn3)cc2)cnn1 [Example 32, (3R)-3-amino-7-(6-tert-butylpyridazin-4-yl)-8-fluoro-1,1-dioxo-5-[[4-[5-(trifluoromethyl)-2-pyridyl]phenyl]methyl]-2,3-dihydro-1λ6,5-benzothiazepin-4-one]	53	0.966	3.21	164	0.439	13
